Measured values from patent publication US20030130180A1, “Utilization of an aminopeptidase inhibitor” (priority 2000, published 2003).

Assays:
tumor cells [1] = conditions: cited from earlier work; for tumor cell invasion: in vitro, matrigel analytic system
tumor cells [2] = conditions: cited from earlier work
[3] = test system: tumor cells and immune cells; assay: Cell-biological experiments on blocking of polarization of tumor cells and immune cells; assay type: cell-based; conditions: general statement
Description: By means of a method of simultaneously detecting a number of cell surface proteins, it has been established that aminopeptidases will control cell surface proteins which are not part of the class of proteolytic enzymes, but belong to the class of the adhesion molecules, which adhesion molecules—in a certain combination and geometric array—will be decisive for the polarization of the cells. Consequently, aminopeptidases appear to be superordinate control proteins in a protein network consisting of up to 30 different cell surface protein species which—through specific interaction with one another—will control polarization of tumor cells and other invasive cells such as immune cells and which are listed above. The inhibition of at least one aminopeptidase will lead to a reproducible modification of surface protein combinations on the cell surface which will always also involve a modification of CD13. […] The term polarization as used here shall denote a process in which a primarily spherical cell will transition into an oblong, elongated cell shape, via various intermediate states. This process which constitutes a change of shape controlled by the complex protein network is the prerequisite for cell migration, since only cells of oblong shape are capable of migrating. The polarization process therefore needs to precede all cell migration processes, including invasion. […]

Compound	formation of cell extensions (tumor cells [1])	tumor cell invasion (tumor cells [1])	degradation of type IV collagen (tumor cells [2])	invasion of tumor cells (tumor cells [2])	tumor cell adhesion and migration to the extracellular matrix (tumor cells [2])	modification of the surface proteins of the protein network [3]
CC(C)C[C@H](NC(=O)[C@@H](O)[C@H](N)Cc1ccccc1)C(=O)O [bestatin]	no effect	do not have an effect	capable of preventing degradation of the type IV collagen	preventing the invasion of tumor cells	does not have any influence	leading to a modification of the surface proteins of the protein network
CCc1cccc(CC)c1N1C(=O)Cc2ccccc2C1=O [PIQ-22]	suppression of the formation of cell extensions	inhibition of the invasion	–	–	–	–
